Test results: ChEMBL document CHEMBL1201862, “PubChem BioAssay data set” (2004)
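Test compounds were applied to cells in 96-well plates for 48 hours at 5 doses. At the GI50, growth is halved.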 Active and inactive are the calls of the source. Cut-off read from the data, not from the text of the source: active = GI50 up to about 1.1 µM and inactive = higher.

Assays:
Test in all cases: NCI anticancer screen, dose series, 48 h
Hs-578T = tested on: Hs-578T
A498 = tested on: A498
SK-MEL-5 = tested on: SK-MEL-5
SNB-75 = tested on: SNB-75
HCC 2998 = tested on: HCC 2998
IGROV-1 = tested on: IGROV-1
M14 = tested on: M14
BT-549 = tested on: BT-549
OVCAR-5 = tested on: OVCAR-5
NCI/ADR-RES = tested on: NCI/ADR-RES
MDA-MB-231 = tested on: MDA-MB-231
RXF 393 = tested on: RXF 393
NCI-H460 = tested on: NCI-H460
A549 = tested on: A549
CCRF-CEM = tested on: CCRF-CEM
DU-145 = tested on: DU-145
NCI-H23 = tested on: NCI-H23
OVCAR-3 = tested on: OVCAR-3
RPMI-8226 = tested on: RPMI-8226

Row | Compound | GI50 (Hs-578T) | GI50 (A498) | GI50 (SK-MEL-5) | GI50 (SNB-75) | GI50 (HCC 2998) | GI50 (IGROV-1) | GI50 (M14) | GI50 (BT-549) | GI50 (OVCAR-5) | GI50 (NCI/ADR-RES) | GI50 (MDA-MB-231) | GI50 (RXF 393) | GI50 (NCI-H460) | GI50 (A549) | GI50 (CCRF-CEM) | GI50 (DU-145) | GI50 (NCI-H23) | GI50 (OVCAR-3) | GI50 (RPMI-8226)
1 | CC1(C)COP(=S)(c2ccccn2)O[C@@H]1c1ccccc1 (stereo not given in full) | > 100 µM (inactive) | > 100 µM (inactive) | 26.9 µM (inactive) | 6.19 µM (inactive) | > 100 µM (inactive) | > 100 µM (inactive) | > 100 µM (inactive) | > 100 µM (inactive) | > 100 µM (inactive) | 66.1 µM (inactive) | > 100 µM (inactive) | 62.2 µM (inactive) | > 100 µM (inactive) | 81.3 µM (inactive) | 42.1 µM (inactive) | > 100 µM (inactive) | 69.5 µM (inactive) | – | –
2 | CCC(c1ccccc1)c1cc(C(C)(C)C)cc(C(C)(C)C)c1O (stereo not given) | 16.3 µM (inactive) | 19.7 µM (inactive) | 18.1 µM (inactive) | 14.2 µM (inactive) | 15.8 µM (inactive) | 17 µM (inactive) | 18.6 µM (inactive) | 19.3 µM (inactive) | 13.7 µM (inactive) | 15.4 µM (inactive) | 18.1 µM (inactive) | 20 µM (inactive) | 17.5 µM (inactive) | 16.3 µM (inactive) | – | 19.1 µM (inactive) | 17.2 µM (inactive) | 14.2 µM (inactive) | 13.6 µM (inactive)
3 | Clc1ccc2nc3[nH]nc(Cl)c3nc2c1 | 22.7 µM (inactive) | 46.2 µM (inactive) | 27.1 µM (inactive) | 48.6 µM (inactive) | 38.4 µM (inactive) | – | 70.3 µM (inactive) | 28.4 µM (inactive) | 48.1 µM (inactive) | 56.2 µM (inactive) | 57.7 µM (inactive) | 35 µM (inactive) | 40.1 µM (inactive) | 36.8 µM (inactive) | – | 50.7 µM (inactive) | 48.1 µM (inactive) | 66.8 µM (inactive) | 47.4 µM (inactive)
4 | CCOC(=O)C1=NN(c2ccc([N+](=O)[O-])cc2)[C@@]2(C)C[C@]3(c4ccccc4)N(c4ccc([N+](=O)[O-])cc4)N=C(C(=O)OCC)N3c3ccccc3N12 | > 100 µM (inactive) | > 100 µM (inactive) | > 100 µM (inactive) | > 100 µM (inactive) | > 100 µM (inactive) | > 100 µM (inactive) | 53.2 µM (inactive) | > 100 µM (inactive) | > 100 µM (inactive) | > 100 µM (inactive) | 4.51 µM (inactive) | > 100 µM (inactive) | – | > 100 µM (inactive) | > 100 µM (inactive) | > 100 µM (inactive) | > 100 µM (inactive) | > 100 µM (inactive) | > 100 µM (inactive)
5 | CCOC(=O)CNC1=Nc2ccccc2C(=O)N2CSCC12 (stereo not given) | > 100 µM (inactive) | > 100 µM (inactive) | > 100 µM (inactive) | > 100 µM (inactive) | > 100 µM (inactive) | > 100 µM (inactive) | > 100 µM (inactive) | > 100 µM (inactive) | > 100 µM (inactive) | > 100 µM (inactive) | > 100 µM (inactive) | > 100 µM (inactive) | > 100 µM (inactive) | > 100 µM (inactive) | > 100 µM (inactive) | > 100 µM (inactive) | – | > 100 µM (inactive) | > 100 µM (inactive)
6 | CC1OC(n2cnc3c(N)nc(Cl)nc32)C(C)(O)C1O (stereo not given) | > 25 µM (inactive) | > 25 µM (inactive) | > 25 µM (inactive) | 1.41 µM (inactive) | > 25 µM (inactive) | > 25 µM (inactive) | > 25 µM (inactive) | > 25 µM (inactive) | > 25 µM (inactive) | > 25 µM (inactive) | > 25 µM (inactive) | > 25 µM (inactive) | – | > 25 µM (inactive) | > 25 µM (inactive) | > 25 µM (inactive) | > 25 µM (inactive) | > 25 µM (inactive) | > 25 µM (inactive)
7 | CSc1c(C#N)c(=O)n(N)c2c1c(C)nn2-c1ccccc1 | 51.4 µM (inactive) | 21.4 µM (inactive) | 15.3 µM (inactive) | 28.2 µM (inactive) | 18.1 µM (inactive) | – | 35.7 µM (inactive) | 30.1 µM (inactive) | 24.1 µM (inactive) | 24.3 µM (inactive) | 17.6 µM (inactive) | 18.7 µM (inactive) | > 100 µM (inactive) | 21.9 µM (inactive) | 19.4 µM (inactive) | 37.2 µM (inactive) | 18.9 µM (inactive) | 25.1 µM (inactive) | 21.9 µM (inactive)
8 | CCCCCCC(=O)c1ccc2ccccc2c1O | 56 µM (inactive) | 0.318 µM (active) | > 100 µM (inactive) | 43.1 µM (inactive) | > 100 µM (inactive) | 27.4 µM (inactive) | 58.3 µM (inactive) | 76 µM (inactive) | – | 51.2 µM (inactive) | 85.5 µM (inactive) | 25.1 µM (inactive) | 52.4 µM (inactive) | – | 33.1 µM (inactive) | 26.6 µM (inactive) | 92.5 µM (inactive) | – | 98.4 µM (inactive)
9 | CC1(C)CCCCCCCCCC(C)(CCCCCCCCCCCCO)C1=O (stereo not given) | 19.7 µM (inactive) | 18.7 µM (inactive) | 19.5 µM (inactive) | 16.1 µM (inactive) | 0.655 µM (active) | 19.1 µM (inactive) | – | 16.6 µM (inactive) | 18.5 µM (inactive) | 18.5 µM (inactive) | 15.3 µM (inactive) | 18.7 µM (inactive) | 18.3 µM (inactive) | 16.1 µM (inactive) | 17.4 µM (inactive) | 17.7 µM (inactive) | 18.7 µM (inactive) | 15.6 µM (inactive) | 18.7 µM (inactive)
10 | CCOC(=O)c1c(NC(=O)OC)c(C#N)c2n1CCCCC2 | > 100 µM (inactive) | > 100 µM (inactive) | > 100 µM (inactive) | > 100 µM (inactive) | > 100 µM (inactive) | > 100 µM (inactive) | > 100 µM (inactive) | > 100 µM (inactive) | – | > 100 µM (inactive) | 35.7 µM (inactive) | > 100 µM (inactive) | > 100 µM (inactive) | – | > 100 µM (inactive) | 22.8 µM (inactive) | > 100 µM (inactive) | – | > 100 µM (inactive)
11 | Cc1c(/C=N\NC(=S)N2CCN(C(=S)N/N=C\c3c(C)n(C)n(-c4ccccc4)c3=O)CC2)c(=O)n(-c2ccccc2)n1C | 33 µM (inactive) | 65.3 µM (inactive) | > 100 µM (inactive) | 21.8 µM (inactive) | 45.4 µM (inactive) | – | 57 µM (inactive) | 44 µM (inactive) | > 100 µM (inactive) | > 100 µM (inactive) | 24 µM (inactive) | 67.9 µM (inactive) | 42 µM (inactive) | 47.9 µM (inactive) | – | 56 µM (inactive) | 50.9 µM (inactive) | 51.9 µM (inactive) | –
12 | COc1ccc(/N=N/C(=N/NC(=O)c2ccc(C)cc2)c2ccc(N(CCC#N)CCC#N)cc2OC)cc1 | > 100 µM (inactive) | > 100 µM (inactive) | > 100 µM (inactive) | – | > 100 µM (inactive) | > 100 µM (inactive) | > 100 µM (inactive) | > 100 µM (inactive) | > 100 µM (inactive) | > 100 µM (inactive) | > 100 µM (inactive) | > 100 µM (inactive) | > 100 µM (inactive) | > 100 µM (inactive) | – | > 100 µM (inactive) | > 100 µM (inactive) | > 100 µM (inactive) | –
13 | CCCCC/C=C1/CC(CO)(COC(=O)CC(C(C)C)C(C)C)OC1=O (stereo not given) | 2.28 µM (inactive) | 13 µM (inactive) | 9.95 µM (inactive) | 10.3 µM (inactive) | 16.7 µM (inactive) | 17.8 µM (inactive) | 14.1 µM (inactive) | 14.8 µM (inactive) | 15.4 µM (inactive) | 17.9 µM (inactive) | 15.6 µM (inactive) | 16.3 µM (inactive) | 13.2 µM (inactive) | 11.1 µM (inactive) | 16 µM (inactive) | 13.4 µM (inactive) | 16 µM (inactive) | 17.7 µM (inactive) | –
14 | COC1CC(C)(NC(C)=O)C2OC(c3ccccc3)OCC2O1 (stereo not given) | > 100 µM (inactive) | > 100 µM (inactive) | > 100 µM (inactive) | > 100 µM (inactive) | – | > 100 µM (inactive) | > 100 µM (inactive) | > 100 µM (inactive) | > 100 µM (inactive) | > 100 µM (inactive) | > 100 µM (inactive) | > 100 µM (inactive) | > 100 µM (inactive) | > 100 µM (inactive) | > 100 µM (inactive) | > 100 µM (inactive) | > 100 µM (inactive) | > 100 µM (inactive) | > 100 µM (inactive)
15 | CC(=O)N(C(=O)CC(=O)N/N=C\c1ccc(Br)c(N(CCC#N)CCC#N)c1)c1ccc(Cl)cc1 | 52.5 µM (inactive) | 33.4 µM (inactive) | – | 54.2 µM (inactive) | 31 µM (inactive) | 21.4 µM (inactive) | 34.5 µM (inactive) | 58.9 µM (inactive) | 11.8 µM (inactive) | 52.8 µM (inactive) | 10.6 µM (inactive) | > 100 µM (inactive) | 74.5 µM (inactive) | 27.4 µM (inactive) | > 100 µM (inactive) | 30.2 µM (inactive) | 86.1 µM (inactive) | 47.9 µM (inactive) | 81.8 µM (inactive)
